Earlier results as cited in PubChem BioAssay AID1259409 (Chemical Carcinogenesis Research Information System (CCRIS), 2018).

System: rodent chemically induced tumor inhibition, incidence and multiplicity
Assay: CCRIS tumor inhibitor studies

Compound: COc1c2ccoc2cc2cc(C)oc(=O)c12
- tumour outcome (control, treated, inhibition, significance) (Carcinogen: 7,12-DIMETHYLBENZ[A]ANTHRACENE, 57-97-6, Dose [Inhibitor]: 0, 400 NMOL ONCE APPLIED 5 MIN PRIOR TO CARCINOGEN DOSE (STUDY DURATION: 25 WK), Route [Inhibitor]: DERMAL, Species: MOUSE, Strain/Sex: SENCAR, Target Tissue: Type of Lesion: SKIN: PAPILLOMA, Dose [Carcinogen]: 10 NMOL ONCE, Promoter: 12-O-TETRADECANOYLPHORBOL-13-ACETATE, 16561-29-8): 96%, 96%, 0%, not significant
- tumour outcome (control, treated, inhibition, significance) (Carcinogen: BENZO[A]PYRENE, 50-32-8, Dose [Inhibitor]: 0, 400 NMOL ONCE APPLIED 5 MIN PRIOR TO CARCINOGEN DOSE (STUDY DURATION: 25 WK), Route [Inhibitor]: DERMAL, Species: MOUSE, Strain/Sex: SENCAR, Target Tissue: Type of Lesion: SKIN: PAPILLOMA, Dose [Carcinogen]: 200 NMOL ONCE, Promoter: 12-O-TETRADECANOYLPHORBOL-13-ACETATE, 16561-29-8): 91%, 91%, 0%, not significant

Compound: COc1ccc2cc3[n+](cc2c1OC)CCc1cc2c(cc1-3)OCO2
- tumour outcome (control, treated, inhibition, significance) (Carcinogen: METHYLCHOLANTHRENE, 56-49-5, Dose [Inhibitor]: 0, 0.5 MG/KG BW BY GAVAGE 3/WK FOR 8 WK (STUDY DURATION: 180 D), Route [Inhibitor]: ORAL, Species: MOUSE, Strain/Sex: SWISS/MALE, Target Tissue: Type of Lesion: SKIN: SARCOMA, Dose [Carcinogen]: 200 UG/ANIMAL ONCE 5 D POST INHIBITOR TREATMENT): 100%, 40%, 60%, not calculated
- tumour outcome (control, treated, inhibition, significance) (Carcinogen: METHYLCHOLANTHRENE, 56-49-5, Dose [Inhibitor]: 0, 2.5 MG/KG BW BY GAVAGE 3/WK FOR 8 WK (STUDY DURATION: 180 D), Route [Inhibitor]: ORAL, Species: MOUSE, Strain/Sex: SWISS/MALE, Target Tissue: Type of Lesion: SKIN: SARCOMA, Dose [Carcinogen]: 200 UG/ANIMAL ONCE 5 D POST INHIBITOR TREATMENT): 100%, 47%, 53%, not calculated
- tumour outcome (control, treated, inhibition, significance) (Carcinogen: METHYLCHOLANTHRENE, 56-49-5, Dose [Inhibitor]: 0, 5 MG/KG BW BY GAVAGE 3/WK FOR 8 WK (STUDY DURATION: 180 D), Route [Inhibitor]: ORAL, Species: MOUSE, Strain/Sex: SWISS/MALE, Target Tissue: Type of Lesion: SKIN: SARCOMA, Dose [Carcinogen]: 200 UG/ANIMAL ONCE 5 D POST INHIBITOR TREATMENT): 100%, 67%, 33%, not calculated
- tumour outcome (control, treated, inhibition, significance) (Carcinogen: N,N-DIETHYLNITROSAMINE, 55-18-5, Dose [Inhibitor]: 0, 10 MG/KG BW BY GAVAGE 5 D/WK FOR 141 D (STUDY DURATION: 30 WK), Route [Inhibitor]: ORAL, Species: RAT, Strain/Sex: WISTAR/FEMALE, Target Tissue: Type of Lesion: LIVER: TUMOR, Dose [Carcinogen]: 0.02% IN DISTILLED WATER BY GAVAGE 5 D/WK FOR 20 WK BEGINNING 1 D POST INHIBITOR FIRST DOSE): 100%, 100%, 0%, not significant
- tumour outcome (control, treated, inhibition, significance) (Carcinogen: N,N-DIETHYLNITROSAMINE, 55-18-5, Dose [Inhibitor]: 0, 25 MG/KG BW BY GAVAGE 5 D/WK FOR 141 D (STUDY DURATION: 30 WK), Route [Inhibitor]: ORAL, Species: RAT, Strain/Sex: WISTAR/FEMALE, Target Tissue: Type of Lesion: LIVER: TUMOR, Dose [Carcinogen]: 0.02% IN DISTILLED WATER BY GAVAGE 5 D/WK FOR 20 WK BEGINNING 1 D POST INHIBITOR FIRST DOSE): 100%, 50%, 50%, not significant
- tumour outcome (control, treated, inhibition, significance) (Carcinogen: N,N-DIETHYLNITROSAMINE, 55-18-5, Dose [Inhibitor]: 0, 50 MG/KG BW BY GAVAGE 5 D/WK FOR 141 D (STUDY DURATION: 30 WK), Route [Inhibitor]: ORAL, Species: RAT, Strain/Sex: WISTAR/FEMALE, Target Tissue: Type of Lesion: LIVER: TUMOR, Dose [Carcinogen]: 0.02% IN DISTILLED WATER BY GAVAGE 5 D/WK FOR 20 WK BEGINNING 1 D POST INHIBITOR FIRST DOSE): 100%, 50%, 50%, not significant

Compound: C[C@H]1O[C@@H](O[C@H]2[C@@H](O)C[C@H](O[C@H]3[C@@H](O)C[C@H](O[C@H]4CC[C@@]5(C)[C@H](CC[C@@H]6[C@@H]5CC[C@]5(C)[C@@H](C7=CC(=O)OC7)CC[C@]65O)C4)O[C@@H]3C)O[C@@H]2C)C[C@H](O)[C@@H]1O
- tumour outcome (control, treated, inhibition, significance) (Carcinogen: 4-NITROQUINOLINE-N-OXIDE, 56-57-5, Dose [Inhibitor]: 0, 0.25 MG/100 ML IN DRINKING WATER FOR 20 WK BEGINNING 5 WK POST CARCINOGEN DOSE (STUDY DURATION: 25 WK), Route [Inhibitor]: ORAL, Species: MOUSE, Strain/Sex: ICR/FEMALE, Target Tissue: Type of Lesion: LUNG: TUMOR, Dose [Carcinogen]: 0.3 MG ONCE, Promoter: GLYCEROL, 56-81-5): 100%, 53%, 47%, not calculated
- tumour outcome (control, treated, inhibition, significance) (Carcinogen: 7,12-DIMETHYLBENZ[A]ANTHRACENE, 57-97-6, Dose [Inhibitor]: 0, 85 NMOL IN ACETONE 2/WK 1 HR PRIOR TO EACH PROMOTER DOSE FOR 20 WK (STUDY DURATION: 21 WK), Route [Inhibitor]: DERMAL, Species: MOUSE, Strain/Sex: ICR/FEMALE, Target Tissue: Type of Lesion: SKIN: PAPILLOMA, Dose [Carcinogen]: 100 UG IN ACETONE ONCE, Promoter: 12-O-TETRADECANOYLPHORBOL-13-ACETATE, 16561-29-8): 100%, 80%, 20%, not calculated

Compound: C=C1C[C@H]2[C@@H]3C=C(C)C4=CC(=O)CC[C@]4(C)[C@H]3CC[C@]2(C)[C@@]1(OC(C)=O)C(C)=O
- tumour outcome (control, treated, inhibition, significance) (Carcinogen: NONE USED, Dose [Inhibitor]: 0, 0.1 MG/D IN DIET FOR THE DURATION OF STUDY (STUDY DURATION: LIFESPAN), Route [Inhibitor]: ORAL, Species: RAT, Strain/Sex: BDII/FEMALE, Target Tissue: Type of Lesion: UTERUS: ENDOMETRIAL CARCINOMA, Promoter: NONE USED): 17/20 (85%), 0/20 (0%), 100%, not calculated
- tumour outcome (control, treated, inhibition, significance) (Carcinogen: NONE USED, Dose [Inhibitor]: 0, 0.2 MG/D IN DIET FOR THE DURATION OF STUDY (STUDY DURATION: LIFESPAN), Route [Inhibitor]: ORAL, Species: RAT, Strain/Sex: BDII/FEMALE, Target Tissue: Type of Lesion: UTERUS: ENDOMETRIAL CARCINOMA, Promoter: NONE USED): 17/20 (85%), 0/19 (0%), 100%, not calculated
- tumour outcome (control, treated, inhibition, significance) (Carcinogen: NONE USED, Dose [Inhibitor]: 0, 0.4 MG/D IN DIET FOR THE DURATION OF STUDY (STUDY DURATION: LIFESPAN), Route [Inhibitor]: ORAL, Species: RAT, Strain/Sex: BDII/FEMALE, Target Tissue: Type of Lesion: UTERUS: ENDOMETRIAL CARCINOMA, Promoter: NONE USED): 17/20 (85%), 0/17 (0%), 100%, not calculated
